Data from patent US8557737B2, “Methods of altering poppy characteristics” (priority 2005, dated 2013).

Legend:
Format in all cases: in vivo, Papaver somniferum
poppy crops [1] = assay: Example 9: field trial, mesosulfuron-methyl and metsulfuron-methyl, morphine crop; settings: for LODGING: assessed on the day of capsule harvest; for HEIGHT: measured at green capsule stage
Protocol: (§1) All trials were conducted on poppy crops. Seed was treated with Thiram (5.6 g of Thiram 800/kg seed) and Apron (4 g/kg) and sown at a rate of approximately 750 g/ha. Fertilisers were applied at sowing. Most commonly, either 50:50 lime:superphosphate/triple superphosphate at 125 kg/ha, or lime:superphosphate at 250 kg/ha, were mixed with seed and drilled at a depth of 15 mm. In the same operation, NPK (nitrogen:phosphorus:potassium), at various rates, was banded 75 mm below the seed, unless otherwise stated. All crops were subjected to herbicide sprays for weed control, fungicide sprays for disease control, insecticide sprays if appropriate and were irrigated as required.
(§2) All spray applications were made with a precision sprayer, using Silvan Lurmark flat-fan, low-drift nozzles (LD110-0015). Spray equipment was calibrated to deliver 153 L water/ha.
(§3) At harvest, a 2 m×4 m quadrat was placed in each plot (3 m×6 m, unless otherwise stated) and capsules hand-picked from this area. Capsules were broken up, seed and capsule material separated and weighed. Capsule moisture readings were taken with a moisture meter. Alkaloid yield data were calculated on Pesticide Research Manager (version 5 for Windows) using the formulae below. Briefly, capsule weight was adjusted for moisture to a dry weight, 5% of seed weight was added to this (this amount of capsule material regularly occurs in seed samples after processing) to give a capsule weight per plot. Seed weight was adjusted to 95% of crude weight. Straw weights were determined by multiplying dry capsule weight by 1.3 (estimated amount of stem material in a commercial harvest) and adjusted to 11% moisture. When Lontrel was applied to crops exact capsule and seed weight data were entered. Analyses of variance and a Multiple Range Test were performed on data using Pesticide Research Manager.
Trial to evaluate applications of mesosulfuron-methyl (Compound 2) and metsulfuron-methyl (Compound 1), in a morphine crop. Treatment sprays were applied to crop at ground cover, late run-up and early bud-emergence, respectively. Plant heights were measured at green capsule stage, and lodging assessed on the day of capsule harvest.

poppy crops [2] = assay: Example 16: field trial, metsulfuron-methyl, mesosulfuron-methyl and triasulfuron at row cover and ground cover/early run-up, morphine crop; settings: Trt 5: COMPOUND 2 150 MG/HA + ACTIVATOR .125% V/V at RC and GC/ERU
Protocol: as §1, §2, §3
Trial to evaluate applications of metsulfuron-methyl (Compound 1), mesosulfuron-methyl (Compound 2) and triasulfuron (Compound 3), in a morphine crop. Treatment sprays were applied to crop at row cover and ground cover/early run-up, respectively. Plant heights were assessed 5 weeks after last application and lodging was assessed at capsule harvest.

poppy crops [3] = assay: Example 17: field trial, triasulfuron, mesosulfuron-methyl and metsulfuron-methyl at early run-up and mid-late run-up, morphine crop; settings: Trt 5: COMPOUND 2 150 MG/HA + ACTIVATOR .125% V/V at ERU and M-LRU
Protocol: as §1, §2, §3
Trial to evaluate applications of triasulfuron, mesosulfuron-methyl and metsulfuron-methyl, in a morphine crop. Treatment sprays were applied to with crop at early run-up and mid-late run-up, respectively. Plant heights were measured on 6 weeks after last application and lodging was assessed at capsule harvest.

poppy crops [4] = assay: Example 18: field trial, triasulfuron, mesosulfuron-methyl and metsulfuron-methyl at row cover, mid run-up and early hook, morphine crop; settings: Trt 5: COMPOUND 2 150 MG/HA + ACTIVATOR .125% V/V at RC, MRU and LRU
Protocol: as §1, §2, §3
Trial to evaluate applications of triasulfuron, mesosulfuron-methyl and metsulfuron-methyl, in a morphine crop. […] Plant heights were measured 5 weeks after last application and lodging at capsule harvest.

[5] = COMPOUND 2 390 MG/HA + ACTIVATOR .125 % V/V at GC and EBE
[6] = COMPOUND 2 390 MG/HA + ACTIVATOR .125 % V/V at GC, LRU and EBE

Compound: COC(=O)c1ccc(CNS(C)(=O)=O)cc1S(=O)(=O)NC(=O)Nc1nc(OC)cc(OC)n1 [Compound 2, mesosulfuron-methyl]
- CAPSULE/SEED RATIO (poppy crops [1]; [5]): 2.084 b
- CROP WEIGHT (poppy crops [1]; [5]): 1.80 c t/ha
- MORPHINE (poppy crops [1]; [5]): 26.41 b kg/ha
- SEED (poppy crops [1]; [5]): 460 b kg/ha
- STRAW (poppy crops [1]; [5]): 1342 c kg/ha
- STRAW MORPHINE (poppy crops [1]; [5]): 2.10 a %
- LODGING (poppy crops [1]; [5]): 6.5 bc %
- HEIGHT (poppy crops [1]; [5]): 96.0 ab cm
- CAPSULE/SEED RATIO (poppy crops [1]; [6]): 1.854 b
- CROP WEIGHT (poppy crops [1]; [6]): 1.16 d t/ha
- MORPHINE (poppy crops [1]; [6]): 15.27 c kg/ha
- SEED (poppy crops [1]; [6]): 336 b kg/ha
- STRAW (poppy crops [1]; [6]): 827 d kg/ha
- STRAW MORPHINE (poppy crops [1]; [6]): 2.03 a %
- LODGING (poppy crops [1]; [6]): 11.0 ab %
- HEIGHT (poppy crops [1]; [6]): 89.3 b cm
- CAPS/SEED RATIO (poppy crops [2]): 0.825 c
- CROP WEIGHT (poppy crops [2]): 3.65 ab t/ha
- MORPHINE (poppy crops [2]): 43.77 ab kg/ha
- SEED (poppy crops [2]): 1671 b kg/ha
- STRAW (poppy crops [2]): 1976 ab kg/ha
- STRAW MORPHINE (poppy crops [2]): 2.21 a %
- PLANT HEIGHT (poppy crops [2]; 5 weeks after last application): 101.6 b cm
- CAPS/SEED RATIO (poppy crops [3]): 2.315 days
- CROP WEIGHT (poppy crops [3]): 2.57 b t/ha
- MORPHINE (poppy crops [3]): 41.97 b kg/ha
- SEED (poppy crops [3]): 612 b kg/ha
- STRAW (poppy crops [3]): 1910 b kg/ha
- STRAW MORPHINE (poppy crops [3]): 2.23 b %
- PLANT HEIGHT (poppy crops [3]; 6 weeks after last application): 104.0 b cm
- LODGING (poppy crops [3]; at capsule harvest): 2.8 b %
- CAPS/SEED RATIO (poppy crops [4]): 1.071 b
- CROP WEIGHT (poppy crops [4]): 3.25 a t/ha
- MORPHINE (poppy crops [4]): 42.83 b kg/ha
- SEED (poppy crops [4]): 1281 b kg/ha
- STRAW (poppy crops [4]): 1917 b kg/ha
- STRAW MORPHINE (poppy crops [4]): 2.23 b %
- PLANT HEIGHT (poppy crops [4]; 5 weeks after last application): 96.4 b cm
- LODGING (poppy crops [4]; at capsule harvest): 2.8 a %
